Experiment [1] concerns LNCaP. In words: Induction of cell cycle arrest in human LNCaP cells assessed as accumulation at G1 phase at 2 micromol/L after 24 hrs by RNase A/PI-staining based flow cytometric analysis (reference value: 47.99%). In kind it is functional. Conditions: dose 2 µmol/L, at 2 µM.
Experiment [2] relates to LNCaP. In words: Induction of apoptosis in human LNCaP cells assessed as late cells level at 2 micromol/L incubated for 24 hrs by Annexin V/PI staining staining based flow cytometry (reference value: 0.940%). Format: functional. The settings on record: dose 2 µmol/L, at 2 µM.
For experiment [3], the target named is T1, Androgen receptor (Homo sapiens) (UniProt P10275).
T1 sequence (whole entry): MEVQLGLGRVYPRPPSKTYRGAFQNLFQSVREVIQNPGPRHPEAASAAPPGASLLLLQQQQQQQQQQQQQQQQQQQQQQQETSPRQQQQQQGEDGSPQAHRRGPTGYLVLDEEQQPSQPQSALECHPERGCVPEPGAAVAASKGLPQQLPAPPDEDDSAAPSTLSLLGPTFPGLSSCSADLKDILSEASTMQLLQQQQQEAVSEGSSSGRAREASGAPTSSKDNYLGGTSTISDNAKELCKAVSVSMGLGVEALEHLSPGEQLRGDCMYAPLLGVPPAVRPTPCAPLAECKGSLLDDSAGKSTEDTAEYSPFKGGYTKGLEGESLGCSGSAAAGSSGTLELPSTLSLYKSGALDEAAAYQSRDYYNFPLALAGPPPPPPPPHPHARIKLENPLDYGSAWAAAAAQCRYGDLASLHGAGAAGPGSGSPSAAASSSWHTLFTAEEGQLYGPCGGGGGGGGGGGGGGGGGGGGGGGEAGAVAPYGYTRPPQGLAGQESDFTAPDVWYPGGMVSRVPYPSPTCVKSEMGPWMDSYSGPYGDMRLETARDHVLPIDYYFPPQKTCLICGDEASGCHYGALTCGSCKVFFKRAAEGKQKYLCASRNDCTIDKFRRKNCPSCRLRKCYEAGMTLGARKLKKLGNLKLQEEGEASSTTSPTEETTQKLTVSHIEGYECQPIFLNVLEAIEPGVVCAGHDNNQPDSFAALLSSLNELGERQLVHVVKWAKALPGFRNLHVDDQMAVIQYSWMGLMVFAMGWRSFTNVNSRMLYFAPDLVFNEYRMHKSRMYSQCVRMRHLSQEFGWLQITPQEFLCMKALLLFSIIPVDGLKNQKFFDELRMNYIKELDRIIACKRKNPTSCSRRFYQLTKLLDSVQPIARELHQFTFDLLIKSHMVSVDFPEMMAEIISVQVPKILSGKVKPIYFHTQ
The experiment can be described thus: Selective androgen receptor degradation activity at androgen receptor in human LNCaP cells assessed as down regulation of protein level at 2 uM after 24 hrs by Western blot analysis. Format: cell-based.

The target of experiment [4] is Prostate-specific antigen (Homo sapiens) (UniProt P07288). The experiment can be described thus: Induction of downregulation of PSA (unknown orgin) human LNCaP cells at 1 uM after 24 hrs by Western blot analysis.
Chain of Prostate-specific antigen (Homo sapiens) (P07288 whole entry, looked up): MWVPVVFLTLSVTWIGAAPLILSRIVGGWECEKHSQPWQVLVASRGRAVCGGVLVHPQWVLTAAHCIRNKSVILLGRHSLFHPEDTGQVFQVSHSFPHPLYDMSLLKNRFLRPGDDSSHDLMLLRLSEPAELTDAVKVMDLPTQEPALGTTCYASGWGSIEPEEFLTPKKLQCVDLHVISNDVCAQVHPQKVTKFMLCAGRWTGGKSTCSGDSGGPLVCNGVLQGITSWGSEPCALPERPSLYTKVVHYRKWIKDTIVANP

Active and inactive are the calls of the source. The rule behind the calls is not given here.

Regarding `CC1(C)C(=O)N(c2ccc(C#N)c(C(F)(F)F)c2)C(=S)N1CCCCCn1cc(COCCOCCOC(=O)CC23CC4CC(CC(C4)C2)C3)nn1`, the Activity in the experiment with LNCaP [1] was found to be 67.54%; with LNCaP [2] it was 1.59%. Also, the outcome in experiment [3] and in experiment [4] was Active.
